The results in this text go back to ChEMBL document CHEMBL4406842, “Synthesis and in vitro biological evaluation of novel derivatives of Flexicaulin A condensation with amino acid trifluoroacetate” (Eur J Med Chem, 2019).

Series [1] has as its system MCF7. As to the kind of experiment: Antiproliferative activity against human MCF7 cells assessed as reduction in cell viability incubated for 72 hrs by SRB assay. It counts as functional, cell-based. The note with it: MCF7, 72 h. A general note: In SRB staining, fixed cells bind dye roughly in proportion to their protein.
Series [2] is described as follows: Solubility of compound in water. The note with it: buffer. It counts as physicochemical.
The subject of series [3] is TE-1. As to the kind of experiment: Antiproliferative activity against human TE1 cells assessed as reduction in cell viability incubated for 72 hrs by SRB assay. The note with it: TE-1, 72 h. The format is functional, cell-based.
For series [4], the system named is MGC-803. Briefly: Antiproliferative activity against human MGC803 cells assessed as reduction in cell viability incubated for 72 hrs by SRB assay. The note with it: MGC-803, 72 h. It counts as functional, cell-based.
The test system of series [5] is A549. Briefly: Antiproliferative activity against human A549 cells assessed as reduction in cell viability incubated for 72 hrs by SRB assay. The format is functional, cell-based. The note with it: A549, 72 h.

In general, IC50 refers to the concentration needed to halve the response being measured. On to `C=C1C(=O)[C@]23[C@H](OC(=O)[C@H](C)N)[C@H]1C[C@H](O)[C@H]2[C@]1(COC(C)=O)CCCC(C)(C)[C@H]1C[C@H]3OC.O=C(O)C(F)(F)F`, for which the IC50 in series [1] came to 7.37 µM; in series [3], 3.07 µM; in series [4], 10.5 µM; in series [5], 3.96 µM. The solubility result in series [2] is listed as “Soluble”.
As for `C=C1C(=O)[C@]23[C@H](OC(=O)[C@H](CCc4ccccc4)NC(=O)OC(C)(C)C)[C@H]1C[C@H](O)[C@H]2[C@]1(COC(C)=O)CCCC(C)(C)[C@H]1C[C@H]3OC`, the IC50 came out at 2.18 µM in series [1], 1.63 µM in series [3], 1.73 µM in series [4] and 3.72 µM in series [5]. In series [2], the solubility entry is “Insoluble”.
The like results for `C=C1C(=O)[C@]23[C@H](OC(=O)[C@H]4CCCNC4)[C@H]1C[C@H](O)[C@H]2[C@]1(COC(C)=O)CCCC(C)(C)[C@H]1C[C@H]3OC.O=C(O)C(F)(F)F` were, in that order, 11.5 µM, 6.55 µM, 6.22 µM, 17.2 µM and “Soluble”.
With `C=C1C(=O)[C@]23[C@H](OC(=O)[C@H](CCCC)NC(=O)OC(C)(C)C)[C@H]1C[C@H](O)[C@H]2[C@]1(COC(C)=O)CCCC(C)(C)[C@H]1C[C@H]3OC`, the concentration for half-maximal inhibition (IC50) in series [1] is 4.42 µM; in series [3], 4.49 µM; in series [4] it was 11.2 µM; in series [5], 11 µM. In addition, in series [2], the solubility result is “Insoluble”.
In the case of `C=C1C(=O)[C@]23[C@H](OC(=O)[C@@H]4CCCCN4C(=O)OC(C)(C)C)[C@H]1C[C@H](O)[C@H]2[C@]1(COC(C)=O)CCCC(C)(C)[C@H]1C[C@H]3OC`, the IC50 came to 2.69 µM in series [1], 1.46 µM in series [3], 3 µM in series [4] and 3.57 µM in series [5]. The solubility entry in series [2] is recorded as “Insoluble”.
Regarding `C=C1C(=O)[C@]23[C@H](OC(=O)[C@H](CCSC)NC(=O)OC(C)(C)C)[C@H]1C[C@H](O)[C@H]2[C@]1(COC(C)=O)CCCC(C)(C)[C@H]1C[C@H]3OC`, the IC50 in series [1] was 2.27 µM; in series [3], 1.33 µM; in series [4] it was 2.86 µM; in series [5], 4.63 µM. Besides, in series [2], the solubility result is reported as “Insoluble”.
For `C=C1C(=O)[C@]23[C@H](OC(=O)[C@H](Cc4ccccc4)N(C)C(=O)OC(C)(C)C)[C@H]1C[C@H](O)[C@H]2[C@]1(COC(C)=O)CCCC(C)(C)[C@H]1C[C@H]3OC`, in that order: 2.46 µM, 1.16 µM, 1.51 µM, 3.15 µM and “Insoluble”.
For the compound `C=C1C(=O)[C@]23[C@H](OC(=O)[C@H](C)NC(=O)OC(C)(C)C)[C@H]1C[C@H](O)[C@H]2[C@]1(COC(C)=O)CCCC(C)(C)[C@H]1C[C@H]3OC`, the concentration for half-maximal inhibition (IC50) came to 2.36 µM in series [1], 1.07 µM in series [3], 2.64 µM in series [4] and 5.63 µM in series [5]. Besides, in series [2], the solubility entry was “Insoluble”.
On to `C=C1C(=O)[C@]23[C@H](OC(=O)[C@@H](N)CCSC)[C@H]1C[C@H](O)[C@H]2[C@]1(COC(C)=O)CCCC(C)(C)[C@H]1C[C@H]3OC.O=C(O)C(F)(F)F`, for which the IC50 in series [1] worked out at 3.1 µM; in series [3] it was 1.6 µM; in series [4], 3.66 µM; in series [5] it was 1.96 µM. Moreover, the solubility entry in series [2] is given as “Soluble”.
Take `C=C1C(=O)[C@]23[C@H](OC(=O)CNC(=O)OC(C)(C)C)[C@H]1C[C@H](O)[C@H]2[C@]1(COC(C)=O)CCCC(C)(C)[C@H]1C[C@H]3OC`: the 50% inhibitory concentration (IC50) amounted to 1.7 µM in series [1], 1.64 µM in series [3], 5.71 µM in series [4] and 4.24 µM in series [5]. Further, the solubility entry in series [2] is given as “Insoluble”.
`C=C1C(=O)[C@]23[C@H](OC(=O)[C@@H]4CCCCN4)[C@H]1C[C@H](O)[C@H]2[C@]1(COC(C)=O)CCCC(C)(C)[C@H]1C[C@H]3OC.O=C(O)C(F)(F)F`: the half-inhibitory concentration (IC50) was determined as 3.49 µM in series [1], 3.16 µM in series [3], 7.15 µM in series [4] and 2.84 µM in series [5]. Besides, in series [2], the solubility entry is listed as “Soluble”.
Take `C=C1C(=O)[C@]23[C@H](OC(=O)CNC)[C@H]1C[C@H](O)[C@H]2[C@]1(COC(C)=O)CCCC(C)(C)[C@H]1C[C@H]3OC.O=C(O)C(F)(F)F`: the IC50 in series [1] came to 3.62 µM; in series [3], 3.19 µM; in series [4], 5.35 µM; in series [5], 5.86 µM. In addition, the solubility result in series [2] is on record as “Soluble”.
The like results for `C=C1C(=O)[C@]23[C@H](OC(=O)[C@H](CCCCNC(=O)OC(C)(C)C)NC(=O)OC(C)(C)C)[C@H]1C[C@H](O)[C@H]2[C@]1(COC(C)=O)CCCC(C)(C)[C@H]1C[C@H]3OC` were, in that order, 4.06 µM, 2.76 µM, 5.43 µM, 6.46 µM and “Insoluble”.
With `C=C1C(=O)[C@]23[C@H](OC(=O)[C@@H](NC(=O)OC(C)(C)C)c4ccccc4)[C@H]1C[C@H](O)[C@H]2[C@]1(COC(C)=O)CCCC(C)(C)[C@H]1C[C@H]3OC`, the IC50 in series [1] amounted to 1.58 µM; in series [3], 0.87 µM; in series [4] it was 2.21 µM; in series [5] it was 2.94 µM. The solubility result in series [2] is given as “Insoluble”.
Regarding `C=C1C(=O)[C@]23[C@H](O)[C@H]1C[C@H](O)[C@H]2[C@]1(COC(C)=O)CCCC(C)(C)[C@H]1C[C@H]3OC`, the IC50 came out at 1.65 µM in series [1], 4.4 µM in series [3], 1.11 µM in series [4] and 1.77 µM in series [5].
As for `C=C1C(=O)[C@]23[C@H](OC(=O)[C@@H](N)Cc4ccccc4)[C@H]1C[C@H](O)[C@H]2[C@]1(COC(C)=O)CCCC(C)(C)[C@H]1C[C@H]3OC.O=C(O)C(F)(F)F`, the IC50 came to 1.01 µM in series [1], 1.88 µM in series [3], 1 µM in series [4] and 2.71 µM in series [5]. Moreover, in series [2], the solubility entry was “Soluble”.
For `C=C1C(=O)[C@]23[C@H](OC(=O)[C@@H]4CCCN4)[C@H]1C[C@H](O)[C@H]2[C@]1(COC(C)=O)CCCC(C)(C)[C@H]1C[C@H]3OC.O=C(O)C(F)(F)F`, in that order: 5.1 µM, 4.28 µM, 5.02 µM, 7.51 µM and “Soluble”.
With `C=C1C(=O)[C@]23[C@H](OC(=O)[C@H]4CCCN(C(=O)OC(C)(C)C)C4)[C@H]1C[C@H](O)[C@H]2[C@]1(COC(C)=O)CCCC(C)(C)[C@H]1C[C@H]3OC`, the IC50 in series [1] was 2.58 µM; in series [3], 1.65 µM; in series [4], 2.55 µM; in series [5], 3.49 µM. Moreover, the solubility result in series [2] is recorded as “Insoluble”.
As for `C=C1C(=O)[C@]23[C@H](OC(=O)[C@@H](N)CC)[C@H]1C[C@H](O)[C@H]2[C@]1(COC(C)=O)CCCC(C)(C)[C@H]1C[C@H]3OC.O=C(O)C(F)(F)F`, the IC50 in series [1] stood at 3.75 µM; in series [3], 2.57 µM; in series [4] it was 3.88 µM; in series [5] it was 4.42 µM. The solubility entry in series [2] is “Soluble”.
`C=C1C(=O)[C@]23[C@H](OC(=O)[C@H](CC)NC(=O)OC(C)(C)C)[C@H]1C[C@H](O)[C@H]2[C@]1(COC(C)=O)CCCC(C)(C)[C@H]1C[C@H]3OC`: the concentration for half-maximal inhibition (IC50) was 3.09 µM in series [1], 1.74 µM in series [3], 4.85 µM in series [4] and 4.81 µM in series [5]. Moreover, in series [2], the solubility result is recorded as “Insoluble”.
With `C=C1C(=O)[C@]23[C@H](OC(=O)[C@H](Cc4ccccc4)NC(=O)OC(C)(C)C)[C@H]1C[C@H](O)[C@H]2[C@]1(COC(C)=O)CCCC(C)(C)[C@H]1C[C@H]3OC`, the half-maximal inhibitory concentration (IC50) in series [1] was 3.06 µM; in series [3], 2.44 µM; in series [4], 3.22 µM; in series [5], 6.22 µM. Also, the solubility result in series [2] is “Insoluble”.
For the compound `C=C1C(=O)[C@]23[C@H](OC(=O)CCCCCNC(=O)OC(C)(C)C)[C@H]1C[C@H](O)[C@H]2[C@]1(COC(C)=O)CCCC(C)(C)[C@H]1C[C@H]3OC`, the IC50 stood at 2.84 µM in series [1], 1.72 µM in series [3], 3.5 µM in series [4] and 5.41 µM in series [5]. Also, the solubility entry in series [2] is recorded as “Insoluble”.
The like results for `C=C1C(=O)[C@]23[C@H](OC(=O)[C@@H](N)CCCCN)[C@H]1C[C@H](O)[C@H]2[C@]1(COC(C)=O)CCCC(C)(C)[C@H]1C[C@H]3OC.O=C(O)C(F)(F)F.O=C(O)C(F)(F)F` were, in that order, 22.2 µM, 14.3 µM, 9.52 µM, 5.86 µM and “Soluble”.
`C=C1C(=O)[C@]23[C@H](OC(=O)CN)[C@H]1C[C@H](O)[C@H]2[C@]1(COC(C)=O)CCCC(C)(C)[C@H]1C[C@H]3OC.O=C(O)C(F)(F)F`: the half-maximal inhibitory concentration (IC50) in series [1] turned out to be 2.57 µM; in series [3] it was 1.85 µM; in series [4], 3.15 µM; in series [5], 3.86 µM. In series [2], the solubility entry is reported as “Soluble”.
`C=C1C(=O)[C@]23[C@H](O)[C@H]1CC[C@H]2[C@@]12CO[C@]3(O)[C@@H](O)[C@@H]1C(C)(C)CC[C@@H]2O` [ORIDONIN]: the concentration for half-maximal inhibition (IC50) came out at 22 µM in series [1], 12.7 µM in series [3], 14.1 µM in series [4] and 13.5 µM in series [5].
